ChEMBL document CHEMBL1649404, “Synthesis and biological evaluation of new 4β-anilino-4'-O-demethyl-4-desoxypodophyllotoxin derivatives as potential antitumor agents” (Eur J Med Chem, 2011)

Columns and labels:
[1] = Cytotoxicity against human 95-D cells after 72 hrs by MTT assay; assay type: functional, cell-based
[2] = Cytotoxicity against human KB/VCR cells after 72 hrs by MTT assay; assay type: functional, cell-based
[3] = system: KB; experiment: Cytotoxicity against human KB cells after 72 hrs by MTT assay; assay type: functional, cell-based
[4] = system: A549; experiment: Cytotoxicity against human A549 cells after 72 hrs by MTT assay; assay type: functional, cell-based; settings: A549, 72 h
[5] = system: Mus musculus; experiment: Toxicity in BALB/c mouse xenografted with human 95-D cells assessed as body weight at 10 mg/kg administered intramuscularly every other day for 20 days measured post last dose (reference value: 21.6 +/- 0.6 gm); assay type: organism-based; parameters: dose 10 mg/kg, route intramuscular; settings: in vivo, im, 480 h
[6] = Anticancer activity against human 95-D cells xenografted in BALB/c mouse assessed as inhibition of tumor growth at 10 mg/kg administered intramuscularly every other day for 20 days measured post last dose; assay type: functional; settings: im, 480 h, route intramuscular
[7] = Anticancer activity against human 95-D cells xenografted in BALB/c mouse at 10 mg/kg administered intramuscularly every other day for 20 days measured post last dose relative to control; assay type: functional; settings: route intramuscular
[8] = Anticancer activity against human 95-D cells xenografted in BALB/c mouse assessed as inhibition of tumor growth at 50 mg/kg, ig administered 2 to 3 times a week for 20 days measured post last dose; assay type: functional; settings: po, 480 h, route intragastric
[9] = Anticancer activity against human 95-D cells xenografted in BALB/c mouse at 50 mg/kg, ig administered 2 to 3 times a week for 20 days measured post last dose relative to control; assay type: functional; settings: route intragastric
[10] = system: Mus musculus; experiment: Toxicity in BALB/c mouse xenografted with human 95-D cells assessed as body weight at 50 mg/kg, ig administered 2 to 3 times a week for 20 days measured post last dose (reference value: 21.6 +/- 0.6 gm); assay type: organism-based; parameters: dose 50 mg/kg, route intragastric; settings: in vivo, po, 480 h

Row | Structure (SMILES) | IC50 [1] [µM] | IC50 [2] [µM] | IC50 [3] [µM] | IC50 [4] [µM] | Activity [5] [g] | inhibition in vivo at 10 mg/kg [6] [%] | Activity [7] [%] | inhibition in vivo at 50 mg/kg [8] [%] | Activity [9] [%] | Activity [10] [g]
1 | COc1cc([C@@H]2c3cc4c(cc3[C@@H](Nc3cccc(CN5CCCCC5)c3)[C@H]3COC(=O)[C@H]23)OCO4)cc(OC)c1O | 0.2 | 3.44 | 0.97 | 0.5 | – | – | – | – | – | –
2 | COc1cc([C@@H]2c3cc4c(cc3[C@@H](Nc3ccc(CCN5CCCC5)cc3)[C@H]3COC(=O)[C@H]23)OCO4)cc(OC)c1O | 0.036 | 1.57 | 0.21 | 0.24 | – | – | – | – | – | –
3 | COc1cc([C@@H]2c3cc4c(cc3[C@@H](Nc3ccc(CCN5CCOCC5)cc3)[C@H]3COC(=O)[C@H]23)OCO4)cc(OC)c1O | 11.5 | 1.27 | 0.78 | 1.94 | – | – | – | – | – | –
4 | CCN(CC)CCc1ccc(N[C@@H]2c3cc4c(cc3[C@@H](c3cc(OC)c(O)c(OC)c3)[C@H]3C(=O)OC[C@@H]32)OCO4)cc1 | 9.84 | 1.53 | 0.45 | 0.4 | – | – | – | – | – | –
5 | COc1cc([C@@H]2c3cc4c(cc3[C@@H](Nc3ccc(CCN5CCCCC5)cc3)[C@H]3COC(=O)[C@H]23)OCO4)cc(OC)c1O | 17.2 | 19.1 | 4.21 | 13.4 | – | – | – | – | – | –
6 | COc1cc([C@@H]2c3cc4c(cc3[C@@H](Nc3ccc(CCN(C)C)cc3)[C@H]3COC(=O)[C@H]23)OCO4)cc(OC)c1O | 17.1 | 3.95 | 2.42 | 19 | – | – | – | – | – | –
7 | COc1cc([C@@H]2c3cc4c(cc3[C@@H](Nc3ccc(CCN(C(C)C)C(C)C)cc3)[C@H]3COC(=O)[C@H]23)OCO4)cc(OC)c1O | 10 | 2.2 | 0.44 | 0.49 | – | – | – | – | – | –
8 | COc1cc([C@@H]2c3cc4c(cc3[C@@H](Nc3cccc(CCN5CCCC5)c3)[C@H]3COC(=O)[C@H]23)OCO4)cc(OC)c1O | 1.17 | 1.85 | 0.39 | 3.91 | – | – | – | – | – | –
9 | COc1cc([C@@H]2c3cc4c(cc3[C@@H](Nc3cccc(CCN5CCOCC5)c3)[C@H]3COC(=O)[C@H]23)OCO4)cc(OC)c1O | 14.8 | 2.09 | 0.48 | 5.1 | – | – | – | – | – | –
10 | CCN(CC)CCc1cccc(N[C@@H]2c3cc4c(cc3[C@@H](c3cc(OC)c(O)c(OC)c3)[C@H]3C(=O)OC[C@@H]32)OCO4)c1 | 14.6 | 3.87 | 0.77 | 7.49 | – | – | – | – | – | –
11 | COc1cc([C@@H]2c3cc4c(cc3[C@@H](Nc3cccc(CCN5CCCCC5)c3)[C@H]3COC(=O)[C@H]23)OCO4)cc(OC)c1O | 7.4 | 1.78 | 0.43 | 2.75 | – | – | – | – | – | –
12 | COc1cc([C@@H]2c3cc4c(cc3[C@@H](Nc3ccc(CC(=O)N5CCCC5)cc3)[C@H]3COC(=O)[C@H]23)OCO4)cc(OC)c1O | > 50 | 2.2 | 1.52 | 15.9 | – | – | – | – | – | –
13 | COc1cc([C@@H]2c3cc4c(cc3[C@@H](Nc3ccc(CC(=O)N5CCCCC5)cc3)[C@H]3COC(=O)[C@H]23)OCO4)cc(OC)c1O | 25.8 | 2.33 | 0.4 | 5.2 | – | – | – | – | – | –
14 | CCN(CC)C(=O)Cc1cccc(N[C@@H]2c3cc4c(cc3[C@@H](c3cc(OC)c(O)c(OC)c3)[C@H]3C(=O)OC[C@@H]32)OCO4)c1 | > 50 | 27.2 | 0.42 | 4.78 | – | – | – | – | – | –
15 | COc1cc([C@@H]2c3cc4c(cc3[C@@H](Nc3ccc(OCCO)cc3)[C@H]3COC(=O)[C@H]23)OCO4)cc(OC)c1O | 4.13 | 6.51 | 2.88 | 4.54 | 17 | 37.5 | 45.4 | – | – | –
16 | COc1cc([C@@H]2c3cc4c(cc3[C@@H](Nc3ccc(COCCO)cc3)[C@H]3COC(=O)[C@H]23)OCO4)cc(OC)c1O | 0.55 | 7.39 | 3.12 | 5.11 | – | – | – | – | – | –

Row | Structure (SMILES) | IC50 [1] [µM] | IC50 [2] [µM] | IC50 [3] [µM] | IC50 [4] [µM] | Activity [5] [g] | inhibition in vivo at 10 mg/kg [6] [%] | Activity [7] [%] | inhibition in vivo at 50 mg/kg [8] [%] | Activity [9] [%] | Activity [10] [g]
17 | COc1cc([C@@H]2c3cc4c(cc3[C@@H](Nc3ccc(COCCCO)cc3)[C@H]3COC(=O)[C@H]23)OCO4)cc(OC)c1O | 12 | 5.08 | 6 | 7.45 | – | – | – | – | – | –
18 | COc1cc([C@@H]2c3cc4c(cc3[C@@H](Nc3ccc(COCCCCO)cc3)[C@H]3COC(=O)[C@H]23)OCO4)cc(OC)c1O | 20.3 | 9.55 | 6.6 | 8.5 | – | – | – | – | – | –
19 | COc1ccc(C(=O)Nc2ccc(N[C@@H]3c4cc5c(cc4[C@@H](c4cc(OC)c(O)c(OC)c4)[C@H]4C(=O)OC[C@@H]43)OCO5)cc2)cc1 | 0.44 | 9.28 | 6.76 | 3.41 | – | – | – | – | – | –
20 | COc1cc([C@@H]2c3cc4c(cc3[C@@H](Nc3ccc(NC(=O)c5ccc(F)cc5)cc3)[C@H]3COC(=O)[C@H]23)OCO4)cc(OC)c1O | 1.08 | 5.31 | 2.91 | 1.56 | – | – | – | – | – | –
21 | COc1cc([C@@H]2c3cc4c(cc3[C@@H](Nc3ccc(NC(=O)c5ccc(OC(C)=O)cc5)cc3)[C@H]3COC(=O)[C@H]23)OCO4)cc(OC)c1O | 0.42 | 8.48 | 1.91 | 2.68 | – | – | – | 57.3 | 46.3 | 16.8
22 | COc1cc([C@@H]2c3cc4c(cc3[C@@H](Nc3ccc(NC(=O)c5ccc([N+](=O)[O-])cc5)cc3)[C@H]3COC(=O)[C@H]23)OCO4)cc(OC)c1O | 3.41 | 13.7 | > 50 | 11 | – | – | – | – | – | –
23 | COc1cc([C@@H]2c3cc4c(cc3[C@@H](Nc3ccc(NC(=O)CCc5ccccc5)cc3)[C@H]3COC(=O)[C@H]23)OCO4)cc(OC)c1O | 1.15 | 3.7 | 6.88 | 3.31 | 20.2 | 9.2 | 62.4 | – | – | –
24 | COc1cc([C@@H]2c3cc4c(cc3[C@@H](Nc3ccc(NC(=O)CCc5ccccc5[N+](=O)[O-])cc3)[C@H]3COC(=O)[C@H]23)OCO4)cc(OC)c1O | 0.41 | 5.3 | 6.69 | 8.43 | – | – | – | – | – | –
25 | COc1cc([C@@H]2c3cc4c(cc3[C@@H](Nc3ccc(NC(=O)/C=C/c5ccccc5)cc3)[C@H]3COC(=O)[C@H]23)OCO4)cc(OC)c1O | 1.25 | 2.8 | 6.53 | > 50 | – | – | – | – | – | –
26 | COc1ccc(CCC(=O)Nc2ccc(N[C@@H]3c4cc5c(cc4[C@@H](c4cc(OC)c(O)c(OC)c4)[C@H]4C(=O)OC[C@@H]43)OCO5)cc2)cc1 | 1.23 | 3.08 | > 50 | > 50 | – | – | – | – | – | –
27 | COc1cc([C@@H]2c3cc4c(cc3[C@@H](Nc3ccc(NC(=O)c5ccc(Br)cc5)cc3)[C@H]3COC(=O)[C@H]23)OCO4)cc(OC)c1O | 1.66 | 5.72 | 8.75 | 18.9 | – | – | – | – | – | –
28 | COc1cc([C@@H]2c3cc4c(cc3[C@@H](Nc3ccc(NC(=O)c5ccc(Cl)cc5)cc3)[C@H]3COC(=O)[C@H]23)OCO4)cc(OC)c1O | 6.56 | 13.1 | 22.1 | 19.5 | – | – | – | – | – | –
29 | COc1cc([C@@H]2c3cc4c(cc3[C@@H](N(C(=O)c3ccc([N+](=O)[O-])cc3)c3ccc(NC(=O)c5ccc([N+](=O)[O-])cc5)cc3)[C@H]3COC(=O)[C@H]23)OCO4)cc(OC)c1O | 15.7 | > 50 | > 50 | > 50 | – | – | – | – | – | –
30 | COc1cc([C@@H]2c3cc4c(cc3[C@@H](N(C(=O)c3ccc(Cl)cc3)c3ccc(NC(=O)c5ccc(Cl)cc5)cc3)[C@H]3COC(=O)[C@H]23)OCO4)cc(OC)c1O | 19.6 | 14.2 | > 50 | > 50 | – | – | – | – | – | –
31 | COc1cc([C@@H]2c3cc4c(cc3[C@@H](O[C@@H]3O[C@@H]5CO[C@@H](C)O[C@H]5[C@H](O)[C@H]3O)[C@H]3COC(=O)[C@H]23)OCO4)cc(OC)c1O [ETOPOSIDE] | 20.2 | 83.4 | 4.61 | 2.56 | – | – | – | – | – | –
